Laboratory results reported in patent publication US20100119599A1 (ARCHER PHARMACEUTICALS, INC., priority 2006, published 2010).
Where two headings read alike, the source gives them in different places.

What was measured:
Aβ1-40 = assay: Measurement of Aβ1-40 in culture medium of 7W WT APP751 CHO cells by ELISA; format: cell-based, Chinese hamster; conditions: for Aβ1-40 (% of control): CHO cells that overexpress APP751, zero = below the detection limit of the assay; for activity at 5 µM: Cricetulus griseus, 5 μM test compound, CHO cells stably transfected with human APP751, culture medium, ELISA, control DMSO;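 on all read-outs here: 5 µM test compound but RI-coded compounds at 10 µM for 24 hours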
Aβ1-42 = assay: Measurement of Aβ1-42 in culture medium of 7W WT APP751 CHO cells by ELISA; format: cell-based, Chinese hamster; conditions: for Aβ1-42 (% of control): CHO cells that overexpress APP751, zero = below the detection limit of the assay; for activity at 5 µM: Cricetulus griseus, 5 μM test compound, CHO cells stably transfected with human APP751, culture medium, ELISA, control DMSO;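 on Aβ1-42 (% of control): 5 µM test compound but RI-coded compounds at 10 µM for 24 hours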
[1] = Table 1, 0 = no detectable amount
[2] = Table 1, 0 = no detectable amount, read-out: Aβ1-42 (% of control)

Row | SMILES | activity at 5 µM (Aβ1-40; [1]) [%] | activity at 5 µM (Aβ1-42; [2]) [%] | other results
1 | CCOc1cc(/C=c2\sc3n(c2=O)C(N)=C(C#N)C(c2ccc(OCC(N)=O)c(OCC)c2)C=3C#N)ccc1OCC(N)=O (stereo not shown) [ST025037, 2-[4-(5-amino-2-{[4-(carbamoylmethoxy)-3-ethoxyphenyl]methylene}-6,8-dicyano-3-oxo(4,7-dihydro-1,3-thiazolidino[3,2-a]pyridin-7-yl))-2-ethoxyphenoxy]acetamide] |  |  | Aβ1-40 (% of control) (Aβ1-40): 80.02 % of control; Aβ1-42 (% of control) (Aβ1-42): 67.1 % of control
2 | CCOC(=O)C1=C(C)NC2=C(C(=O)CCC2)C1c1ccc(Cl)cc1 (stereo not shown) [ST024440, ethyl 4-(4-chlorophenyl)-2-methyl-5-oxo-1,4,6,7,8-pentahydroquinoline-3-carboxylate] | 63.1 | 97.7 | 
3 | CCCOC(=O)C1=C(C)NC2=C(C(=O)CCC2)C1c1ccc(C)cc1 (stereo not shown) [ST013247, propyl 2-methyl-4-(4-methylphenyl)-5-oxo-1,4,6,7,8-pentahydroquinoline-3-carboxylate] | 35.5 | 55 | 
4 | COc1ccc(C2C(C(=O)OCCOc3ccccc3)=C(C)NC3=C2C(=O)CC(C)(C)C3)cc1O (stereo not shown) [ST052422, 2-phenoxyethyl 4-(3-hydroxy-4-methoxyphenyl)-2,7,7-trimethyl-5-oxo-1,4,6,7,8-pentahydroquinoline-3-carboxylate] | 38.3 | 44.8 | 
5 | CC(=O)Oc1ccc(C2C(C(=O)OCCOc3ccccc3)=C(C)NC3=C2C(=O)CC(c2ccccc2)C3)cc1 (stereo not shown) [ST017230, 4-{2-methyl-5-oxo-7-phenyl-3-[(2-phenoxyethyl)oxycarbonyl]-4-1,4,6,7,8-pentahydroquinolyl}phenyl acetate] | 69.1 | 84.7 | 
6 | CCOC(=O)C1=C(C)NC2=C(C(=O)CC(c3ccc(OC)cc3)C2)C1c1ccc(OC)cc1 (stereo not shown) [ST017136, ethyl 4,7-bis(4-methoxyphenyl)-2-methyl-5-oxo-1,4,6,7,8-pentahydroquinoline-3-carboxylate] | 87.7 | 66.1 | 
7 | CCCCCc1c2c(C)c(C(=O)OCC)cc-2cc2n1C(C)C(C)=C2C (stereo not shown) [ST020165, ethyl 3,6,7,8-tetramethyl-4-pentyl-6-hydropyrrolo[4,5-f]indolizine-2-carboxyla te, chloride] |  |  | activity at 5 µM (Aβ1-40; Table 3): 90.9%; activity at 5 µM (Aβ1-42; Table 3, read-out: Aβ-42 (% of control)): 23.1%
8 | CCOC(=O)C1=C(C)NC2=C(C(=O)CCC2)C1c1ccc(OC)cc1OC (stereo not shown) [ST013213, ethyl 4-(2,4-dimethoxyphenyl)-2-methyl-5-oxo-1,4,6,7,8-pentahydroquinoline-3-carboxylate] | 78.2 | 69.3 | 
9 | CCOc1ccc(C2C(C(=O)OCCc3ccccc3)=C(C)NC3=C2C(=O)CC(C)(C)C3)cc1 (stereo not shown) [ST015087, 2-phenylethyl 4-(4-ethoxyphenyl)-2,7,7-trimethyl-5-oxo-1,4,6,7,8-pentahydroquinoline-3-carboxylate] | 35.3 | 43.7 | 
10 | CC1=C(C(=O)OC2CCCCC2)C(c2ccccc2C(F)(F)F)C2=C(CCCC2=O)N1 (stereo not shown) [ST014882, cyclohexyl 2-methyl-5-oxo-4-[2-(trifluoromethyl)phenyl]-1,4,6,7,8-pentahydroquinoline-3-carboxylate] | 39.5 | 91.8 | 
11 | CC1=C(C(=O)OC(C)C)C(c2ccc(Cl)cc2)C2=C(CC(C)(C)CC2=O)N1 (stereo not shown) [ST017213, methylethyl 4-(4-chlorophenyl)-2,7,7-trimethyl-5-oxo-1,4,6,7,8-pentahydroquinoline-3-carboxylate] | 44.4 | 91.4 | 
12 | CCCCOC(=O)C1=C(C)NC2=C(C(=O)CC(C)(C)C2)C1c1ccc(Cl)c(Cl)c1 (stereo not shown) [ST215419, butyl 4-(3,4-dichlorophenyl)-2,7,7-trimethyl-5-oxo-1,4,6,7,8-pentahydroquinoline-3-carboxylate] | 0 | 0 | 
13 | CC1=C(C(=O)Nc2ccccc2)C(c2ccsc2)C(C#N)=C(SCC(=O)Nc2cccc(Cl)c2)N1 (stereo not shown) [RI_70] |  |  | Aβ1-40 (% of control) (Aβ1-40): 74.1 % of control; Aβ1-42 (% of control) (Aβ1-42): 58.2 % of control
14 | CCCOC(=O)C1=C(C)NC2=C(C(=O)CC(c3ccccc3)C2)C1c1ccc(CC)cc1 (stereo not shown) [ST017264, propyl 4-(4-ethylphenyl)-2-methyl-5-oxo-7-phenyl-1,4,6,7,8-pentahydroquinoline-3-carboxylate] | 29.7 | 48.2 | 
15 | CC1=C(C(=O)OCc2ccccc2)C(c2ccc(C(F)(F)F)cc2)C2=C(CCCC2=O)N1 (stereo not shown) [ST052323, phenylmethyl 2-methyl-5-oxo-4-[4-(trifluoromethyl)phenyl]-1,4,6,7,8-pentahydroquinoline-3-carboxylate] | 4.91 | 0 | 
16 | CC1=C(C(=O)Nc2ccccc2)C(c2cccs2)C(C#N)=C(SCC(=O)Nc2cccc(Cl)c2)N1 (stereo not shown) [RI_69] |  |  | Aβ1-40 (% of control) (Aβ1-40): 89.1 % of control; Aβ1-42 (% of control) (Aβ1-42): 69.8 % of control

Row | SMILES | activity at 5 µM (Aβ1-40; [1]) [%] | activity at 5 µM (Aβ1-42; [2]) [%] | other results
17 | CCCOc1ccccc1C1C(C(=O)OCC(C)C)=C(C)NC2=C1C(=O)CC(c1ccccc1)C2 (stereo not shown) [ST016984, 2-methylpropyl 2-methyl-5-oxo-7-phenyl-4-(2-propoxyphenyl)-1,4,6,7,8-pentahydroquinoline-3-carboxylate] | 25.4 | 56.2 | 
18 | CCOCCOC(=O)C1=C(C)NC2=C(C(=O)CC(C)(C)C2)C1c1ccc(O)c(OC)c1 (stereo not shown) [ST013343, 2-ethoxyethyl 4-(4-hydroxy-3-methoxyphenyl)-2,7,7-trimethyl-5-oxo-1,4,6,7,8-pentahydroquinoline-3-carboxylate] | 61.1 | 83 | 
19 | CC1=C(C#N)C(c2ccc(Cl)cc2)C2=C(CC(C)(C)CC2=O)N1 (stereo not shown) [ST013410, 4-(4-chlorophenyl)-2,7,7-trimethyl-5-oxo-1,4,6,7,8-pentahydroquinoline-3-carbonitrile] | 22 | 26 | 
20 | COc1ccc(COC(=O)C2=C(C)NC3=C(C(=O)CCC3)C2c2ccc(C(F)(F)F)cc2)cc1 (stereo not shown) [ST052362, (4-methoxyphenyl)methyl 2-methyl-5-oxo-4-[4-(trifluoromethyl)phenyl]-1,4,6,7,8-pentahydroquinoline-3-carboxylate] | 7.11 | 0 | 
21 | COC(=O)C1=C(C)NC(C)=C(C(=O)OC)C1c1ccc(Br)cc1 [ST208633, methyl 4-(4-bromophenyl)-5-(methoxycarbonyl)-2,6-dimethyl-1,4-dihydropyridine-3-carboxylate] |  |  | Aβ1-40 (% of control) (Aβ1-40): 9.12 % of control; Aβ1-42 (% of control) (Aβ1-42): 0 % of control
22 | CCCCOC(=O)C1=C(C)NC2=C(C(=O)CCC2)C1c1ccccc1OC (stereo not shown) [ST013324, butyl 4-(2-methoxyphenyl)-2-methyl-5-oxo-1,4,6,7,8-pentahydroquinoline-3-carboxylate] | 54.3 | 93.7 | 
23 | CC1=C(C(=O)Nc2ccccc2)C(c2cccs2)C(C#N)=C(SCC(=O)Nc2cccc(Cl)c2C)N1 (stereo not shown) [RI_38] |  |  | Aβ1-40 (% of control) (Aβ1-40): 62.5 % of control; Aβ1-42 (% of control) (Aβ1-42): 103.4 % of control
24 | CC1=C(C(=O)OCCOc2ccccc2)C(c2ccc(C)s2)C2=C(CCCC2=O)N1 (stereo not shown) [ST052280, 2-phenoxyethyl 2-methyl-4-(5-methyl(2-thienyl))-5-oxo-1,4,6,7,8-pentahydroquinoline-3-carboxylate] | 73.6 | 37.7 | 
25 | CC1=C(C(=O)Nc2ccccc2)C(c2cccs2)C(C#N)=C(SCC(=O)NCCc2ccc(Br)cc2)N1 (stereo not shown) [RI_19] |  |  | Aβ1-40 (% of control) (Aβ1-40): 35.4 % of control; Aβ1-42 (% of control) (Aβ1-42): 44.4 % of control
26 | COc1cc(C2C(C(=O)OCCOc3ccccc3)=C(C)NC3=C2C(=O)CC(C)(C)C3)ccc1OCc1ccccc1 (stereo not shown) [ST015071, 2-phenoxyethyl 4-[3-methoxy-4-(phenylmethoxy)phenyl]-2,7,7-trimethyl-5-oxo-1,4,6,7,8-pentahydroquinoline-3-carboxylate] | 60.8 | 88.3 | 
27 | CCCCCOC(=O)C1=C(C)NC2=C(C(=O)CC(C)(C)C2)C1c1ccc(Cl)c(Cl)c1 (stereo not shown) [ST216061, pentyl 4-(3,4-dichlorophenyl)-2,7,7-trimethyl-5-oxo-1,4,6,7,8-pentahydroquinoline-3-carboxylate] | 0 | 0 | 
28 | CCCCCOC(=O)C1=C(C)NC2=C(C(=O)CC(C)(C)C2)C1c1ccc2c(c1)OCO2 (stereo not shown) [ST216581, pentyl 4-(2H-benzo[3,4-d]1,3-dioxolan-5-yl)-2,7,7-trimethyl-5-oxo-1,4,6,7,8-pentahydroquinoline-3-carboxylate] | 28.6 | 41.6 | 
29 | COC(=O)C1=C(C)NC2=C(C(=O)CC(c3ccc(Cl)cc3)C2)C1c1ccccc1 (stereo not shown) [ST015218, methyl 7-(4-chlorophenyl)-2-methyl-5-oxo-4-phenyl-1,4,6,7,8-pentahydroquinoline-3-carboxylate] | 59.3 | 0 | 
30 | CCOC(=O)C1=C(C)NC2=C(C(=O)CCC2)C1c1ccc(OCC)cc1 (stereo not shown) [ST213781, ethyl 4-(4-ethoxyphenyl)-2-methyl-5-oxo-1,4,6,7,8-pentahydroquinoline-3-carboxylate] | 66.8 | 81.3 | 
31 | CCCOc1ccc(C2C(C(=O)OCc3ccc(OC)cc3)=C(C)NC3=C2C(=O)CC(C)(C)C3)cc1OC (stereo not shown) [ST016979, (4-methoxyphenyl)methyl 4-(3-methoxy-4-propoxyphenyl)-2,7,7-trimethyl-5-oxo-1,4,6,7,8-pentahydroquinoline-3-carboxylate] | 53.7 | 90.1 | 
32 | COC(=O)C1=C(C)NC2=C(C(=O)CC(c3ccc(Cl)cc3)C2)C1c1ccc(Cl)c(Cl)c1 (stereo not shown) [ST015215, methyl 4-(3,4-dichlorophenyl)-7-(4-chlorophenyl)-2-methyl-5-oxo-1,4,6,7,8-pentahydroquinoline-3-carboxylate] | 23.1 | 39.8 | 
